Laboratory results from ChEMBL document CHEMBL1201862, “PubChem BioAssay data set” (2004).
The source made the active and inactive calls.

Legend:
[1] = target: T1, Short transient receptor potential channel 4 (Mus musculus, UniProt Q9QUQ5); test: mouse TRPC4 channel inhibitors, dose response, cell-based, HEK293 TRPC4/mu-opioid, Fluo-4 calcium (AID 434942); type: functional;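 also: potency of inhibitors blocking the TRPC4 calcium response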
T1 sequence (Q9QUQ5 whole entry): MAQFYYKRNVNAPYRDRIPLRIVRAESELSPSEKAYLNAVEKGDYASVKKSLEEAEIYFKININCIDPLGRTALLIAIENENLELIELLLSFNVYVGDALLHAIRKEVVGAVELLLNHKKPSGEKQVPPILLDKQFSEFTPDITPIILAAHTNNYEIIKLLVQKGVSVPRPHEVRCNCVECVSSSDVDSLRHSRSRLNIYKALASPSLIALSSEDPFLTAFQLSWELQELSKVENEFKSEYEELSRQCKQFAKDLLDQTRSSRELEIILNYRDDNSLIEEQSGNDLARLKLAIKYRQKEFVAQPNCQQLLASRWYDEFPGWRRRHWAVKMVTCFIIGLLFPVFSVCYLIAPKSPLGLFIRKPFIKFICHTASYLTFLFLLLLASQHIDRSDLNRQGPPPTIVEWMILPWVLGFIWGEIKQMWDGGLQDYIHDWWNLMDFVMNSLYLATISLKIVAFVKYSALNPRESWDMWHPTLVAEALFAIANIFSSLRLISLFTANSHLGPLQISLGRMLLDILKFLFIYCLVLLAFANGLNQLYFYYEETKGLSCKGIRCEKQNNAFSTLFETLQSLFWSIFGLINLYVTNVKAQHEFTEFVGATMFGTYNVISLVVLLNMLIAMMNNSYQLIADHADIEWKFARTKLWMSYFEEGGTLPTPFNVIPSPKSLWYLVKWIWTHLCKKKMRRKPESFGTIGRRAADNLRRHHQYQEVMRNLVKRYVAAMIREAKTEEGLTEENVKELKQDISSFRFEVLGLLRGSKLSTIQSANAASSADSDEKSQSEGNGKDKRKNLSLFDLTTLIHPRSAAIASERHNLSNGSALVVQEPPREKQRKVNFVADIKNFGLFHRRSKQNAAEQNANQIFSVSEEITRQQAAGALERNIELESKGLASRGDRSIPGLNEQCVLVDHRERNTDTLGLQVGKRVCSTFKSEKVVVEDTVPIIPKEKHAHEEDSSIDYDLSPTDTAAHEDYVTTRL

[2] = target: T2, Fructose-bisphosphate aldolase (Mycobacterium tuberculosis, UniProt P9WQA3); test: Fluorescence-based biochemical high throughput dose response assay for inhibitors of the fructose-bisphosphate aldolase (FBA) of M. tuberculosis.; type: functional
T2 sequence (P9WQA3 whole entry): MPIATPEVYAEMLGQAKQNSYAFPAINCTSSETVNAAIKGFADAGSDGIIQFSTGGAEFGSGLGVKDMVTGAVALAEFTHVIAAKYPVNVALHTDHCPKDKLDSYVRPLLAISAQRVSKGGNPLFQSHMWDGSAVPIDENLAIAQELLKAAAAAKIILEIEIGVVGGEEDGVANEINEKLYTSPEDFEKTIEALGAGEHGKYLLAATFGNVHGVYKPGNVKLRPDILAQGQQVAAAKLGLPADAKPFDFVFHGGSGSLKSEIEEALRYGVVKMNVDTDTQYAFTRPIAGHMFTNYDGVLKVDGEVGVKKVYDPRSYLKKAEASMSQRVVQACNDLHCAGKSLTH

[3] = cells; type: functional, cell-based
[4] = cells; type: functional, cell-based; remark: listed apart in the source
[5] = off-target signal loss in HeLa-CEM21 co-culture – HeLa F-luc CTL cells, cherry-picked, counter-screen for HIV-1 Env fusion inhibitor project, dose response (AID 652040); type: functional, cell-based;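 also: potency for signal decrease marking cytotoxic or nonspecific inhibition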
[6] = ZM109 Env clade C HIV-1 fusion inhibitors, dose response, HeLa effector, CEM target cells, luciferase, cherry-pick (AID 652058); type: functional, cell-based
[7] = inhibitors of HIV Env-driven cell fusion, dose response, cherry-pick (AID 652057); type: functional, cell-based
[8] = inhibitors of clade B AD8 Env fusion, dose response, cell-based, cherry-pick (AID 652062); type: functional;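 also: luciferase signal from cell-cell fusion driven by HIV-1 clade B AD8 Env; potency is for inhibitors of fusion seen as a drop in luminescence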
[9] = target: Genome polyprotein (dengue virus type 2, UniProt P29990); test: Dengue-2 NS5 methyltransferase inhibitors, primary screen, biochemical, confirmation dose response (AID 588689); type: functional
Sequence of Genome polyprotein (P29990 2492-3391 limits assumed): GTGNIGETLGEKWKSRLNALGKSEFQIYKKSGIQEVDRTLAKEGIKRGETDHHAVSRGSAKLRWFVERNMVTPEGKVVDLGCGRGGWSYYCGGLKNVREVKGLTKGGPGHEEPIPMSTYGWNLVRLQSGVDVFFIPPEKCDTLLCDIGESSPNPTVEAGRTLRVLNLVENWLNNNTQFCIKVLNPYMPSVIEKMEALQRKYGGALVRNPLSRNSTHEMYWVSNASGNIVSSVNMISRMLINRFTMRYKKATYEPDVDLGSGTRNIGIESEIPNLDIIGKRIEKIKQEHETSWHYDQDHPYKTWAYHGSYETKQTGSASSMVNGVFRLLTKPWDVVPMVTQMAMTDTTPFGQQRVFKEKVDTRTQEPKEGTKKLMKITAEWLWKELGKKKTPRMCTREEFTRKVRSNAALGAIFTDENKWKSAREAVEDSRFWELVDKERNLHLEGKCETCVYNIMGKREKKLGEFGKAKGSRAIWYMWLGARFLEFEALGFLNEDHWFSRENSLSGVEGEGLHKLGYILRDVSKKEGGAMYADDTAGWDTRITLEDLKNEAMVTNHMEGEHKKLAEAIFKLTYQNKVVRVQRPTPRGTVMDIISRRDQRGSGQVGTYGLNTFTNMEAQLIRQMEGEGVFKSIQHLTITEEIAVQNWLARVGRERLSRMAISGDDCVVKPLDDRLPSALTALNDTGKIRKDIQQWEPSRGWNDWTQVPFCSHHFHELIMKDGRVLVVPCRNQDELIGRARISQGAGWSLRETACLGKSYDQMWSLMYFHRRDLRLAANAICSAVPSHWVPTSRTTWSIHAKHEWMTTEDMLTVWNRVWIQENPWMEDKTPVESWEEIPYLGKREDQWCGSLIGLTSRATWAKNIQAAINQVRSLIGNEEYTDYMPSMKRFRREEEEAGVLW

[10] = target: T3, Histone-lysine N-methyltransferase NSD2 (Homo sapiens, UniProt O96028); type: biochemical
T3 sequence (O96028 whole entry): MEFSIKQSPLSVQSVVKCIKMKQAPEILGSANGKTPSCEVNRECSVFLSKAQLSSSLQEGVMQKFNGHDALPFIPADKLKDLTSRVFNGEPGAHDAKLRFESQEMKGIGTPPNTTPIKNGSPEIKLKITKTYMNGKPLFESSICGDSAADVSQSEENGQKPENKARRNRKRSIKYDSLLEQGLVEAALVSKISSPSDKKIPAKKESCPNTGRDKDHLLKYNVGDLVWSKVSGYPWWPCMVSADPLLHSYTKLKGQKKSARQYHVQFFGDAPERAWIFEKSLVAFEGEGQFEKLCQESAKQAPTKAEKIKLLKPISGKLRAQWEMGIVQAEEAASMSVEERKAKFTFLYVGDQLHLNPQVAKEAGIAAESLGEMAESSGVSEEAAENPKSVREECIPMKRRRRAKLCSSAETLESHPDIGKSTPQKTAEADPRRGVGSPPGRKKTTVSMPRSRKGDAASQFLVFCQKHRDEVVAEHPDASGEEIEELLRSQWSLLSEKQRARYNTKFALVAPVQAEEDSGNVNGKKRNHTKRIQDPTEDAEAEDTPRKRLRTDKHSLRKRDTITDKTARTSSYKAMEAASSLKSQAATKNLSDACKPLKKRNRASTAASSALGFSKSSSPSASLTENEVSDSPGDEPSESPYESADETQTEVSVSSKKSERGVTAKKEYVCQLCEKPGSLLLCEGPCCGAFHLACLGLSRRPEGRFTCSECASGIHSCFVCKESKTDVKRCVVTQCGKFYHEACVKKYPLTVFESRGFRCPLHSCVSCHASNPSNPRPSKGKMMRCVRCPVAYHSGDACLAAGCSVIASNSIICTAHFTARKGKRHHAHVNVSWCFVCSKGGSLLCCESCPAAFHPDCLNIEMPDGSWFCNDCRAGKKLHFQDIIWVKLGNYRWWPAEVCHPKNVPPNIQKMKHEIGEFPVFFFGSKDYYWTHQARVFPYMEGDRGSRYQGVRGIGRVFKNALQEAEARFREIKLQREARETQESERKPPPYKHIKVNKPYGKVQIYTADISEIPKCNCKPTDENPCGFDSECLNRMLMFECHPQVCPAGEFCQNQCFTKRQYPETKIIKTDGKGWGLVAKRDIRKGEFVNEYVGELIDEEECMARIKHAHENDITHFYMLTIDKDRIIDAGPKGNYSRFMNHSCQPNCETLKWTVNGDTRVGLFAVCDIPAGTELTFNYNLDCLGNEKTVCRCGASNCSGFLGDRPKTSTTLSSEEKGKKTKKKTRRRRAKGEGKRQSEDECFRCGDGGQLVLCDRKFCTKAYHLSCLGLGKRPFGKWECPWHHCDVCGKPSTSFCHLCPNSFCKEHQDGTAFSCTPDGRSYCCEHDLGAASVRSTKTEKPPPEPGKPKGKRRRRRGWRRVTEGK

[11] = test system: HEK293; test: inhibitors of LMP1-driven NF-kB reporter, dose response, cell-based, HEK293, luciferase, cherry-pick (AID 588343); type: functional; settings: Homo sapiens
[12] = target: T4, Nuclear receptor subfamily 0 group B member 1 (Homo sapiens, UniProt P51843); type: functional, cell-based;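 also: HEK293T cells transfected with SF-1 and DAX-1 plus StAR promoter luciferase reporter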
T4 sequence (P51843 whole entry): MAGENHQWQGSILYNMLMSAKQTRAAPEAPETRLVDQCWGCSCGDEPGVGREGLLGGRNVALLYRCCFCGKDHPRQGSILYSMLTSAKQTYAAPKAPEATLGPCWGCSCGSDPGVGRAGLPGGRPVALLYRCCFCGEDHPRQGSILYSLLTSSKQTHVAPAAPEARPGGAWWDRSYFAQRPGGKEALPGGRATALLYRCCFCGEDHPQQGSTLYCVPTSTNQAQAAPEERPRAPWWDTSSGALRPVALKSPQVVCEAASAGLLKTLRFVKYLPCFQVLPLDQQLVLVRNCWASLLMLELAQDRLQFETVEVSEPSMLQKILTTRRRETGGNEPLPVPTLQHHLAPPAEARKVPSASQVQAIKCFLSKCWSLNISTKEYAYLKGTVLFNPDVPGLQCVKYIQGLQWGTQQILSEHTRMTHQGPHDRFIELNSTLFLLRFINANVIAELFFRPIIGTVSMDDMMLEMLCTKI

[13] = test system: H4; test: Luminescence Cell-Based Dose Response HTS to Identify Activators of 5'UTR Stem-Loop Driven Prion Protein mRNA Translation in H4 Neuroglioblastoma Cells. [Related pubchem assays: 1829 (Project Summary), 1814 (Primary HTS)]; type: functional; settings: Homo sapiens
[14] = cells; type: functional, cell-based; remark: listed apart in the source
[15] = Luminescence Cell-Based Dose Response HTS to Identify Activators of Luciferase Translation or Activity in H4 […] Cells. [Related pubchem assays: 1829 (Project Summary), 1814 (Primary HTS)]; type: functional
[16] = Luminescence Cell-Based Dose Confirmation HTS to Identify Activators of 5'UTR Stem-Loop Driven Alpha-Synuclein mRNA Translation in H4 Neuroglioblastoma Cells. [Related pubchem assays: 1829 (Project Summary), 1814 (Primary HTS)]; type: functional
[17] = target: Large T antigen (Simian virus 40, UniProt P03070); type: functional, Betapolyomavirus macacae;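 also: Confirmatory-stage PubChem screen for compounds that inhibit SV40 T antigen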
Sequence of Large T antigen (P03070 whole entry): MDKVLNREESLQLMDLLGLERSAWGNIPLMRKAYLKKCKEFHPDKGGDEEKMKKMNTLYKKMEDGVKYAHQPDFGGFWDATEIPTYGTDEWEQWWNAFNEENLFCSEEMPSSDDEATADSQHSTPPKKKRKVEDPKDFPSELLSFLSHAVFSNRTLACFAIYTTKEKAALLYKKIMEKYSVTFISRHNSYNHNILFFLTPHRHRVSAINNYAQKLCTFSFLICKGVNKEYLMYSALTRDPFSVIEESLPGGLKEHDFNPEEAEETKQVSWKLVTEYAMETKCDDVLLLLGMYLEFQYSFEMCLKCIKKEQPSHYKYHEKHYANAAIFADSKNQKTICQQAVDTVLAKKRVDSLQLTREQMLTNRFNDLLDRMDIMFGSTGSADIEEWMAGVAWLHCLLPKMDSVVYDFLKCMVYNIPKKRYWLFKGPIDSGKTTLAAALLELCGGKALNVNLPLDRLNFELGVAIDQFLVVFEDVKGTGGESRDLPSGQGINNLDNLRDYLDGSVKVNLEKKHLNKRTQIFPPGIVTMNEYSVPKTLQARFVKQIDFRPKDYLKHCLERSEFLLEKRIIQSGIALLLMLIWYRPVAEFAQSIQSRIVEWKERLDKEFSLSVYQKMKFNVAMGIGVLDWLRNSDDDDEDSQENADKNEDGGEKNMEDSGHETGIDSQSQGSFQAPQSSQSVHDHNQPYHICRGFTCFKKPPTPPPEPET

[18] = target: Cytochrome P450 3A4 (Homo sapiens, UniProt P08684);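 also: CYP3A4 tested as one member of a cytochrome P450 panel screen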
Sequence of Cytochrome P450 3A4 (P08684 whole entry): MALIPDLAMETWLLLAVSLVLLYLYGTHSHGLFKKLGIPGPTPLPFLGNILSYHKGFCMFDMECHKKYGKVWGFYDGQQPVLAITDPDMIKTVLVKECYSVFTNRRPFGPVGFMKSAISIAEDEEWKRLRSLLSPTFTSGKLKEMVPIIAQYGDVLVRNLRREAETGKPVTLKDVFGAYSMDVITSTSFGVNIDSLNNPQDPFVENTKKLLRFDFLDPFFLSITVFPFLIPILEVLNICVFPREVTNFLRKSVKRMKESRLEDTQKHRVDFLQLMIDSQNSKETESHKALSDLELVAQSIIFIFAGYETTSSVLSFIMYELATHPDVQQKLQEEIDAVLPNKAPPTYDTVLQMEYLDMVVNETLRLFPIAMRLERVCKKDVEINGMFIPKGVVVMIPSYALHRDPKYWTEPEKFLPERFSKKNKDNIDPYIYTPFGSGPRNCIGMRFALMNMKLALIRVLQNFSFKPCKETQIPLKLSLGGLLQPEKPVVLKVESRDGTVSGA

[19] = target: T5, Cytochrome P450 1A2 (Homo sapiens, UniProt P05177);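 also: PubChem cytochrome P450 panel assay, CYP1A2 panel member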
T5 sequence (P05177 whole entry): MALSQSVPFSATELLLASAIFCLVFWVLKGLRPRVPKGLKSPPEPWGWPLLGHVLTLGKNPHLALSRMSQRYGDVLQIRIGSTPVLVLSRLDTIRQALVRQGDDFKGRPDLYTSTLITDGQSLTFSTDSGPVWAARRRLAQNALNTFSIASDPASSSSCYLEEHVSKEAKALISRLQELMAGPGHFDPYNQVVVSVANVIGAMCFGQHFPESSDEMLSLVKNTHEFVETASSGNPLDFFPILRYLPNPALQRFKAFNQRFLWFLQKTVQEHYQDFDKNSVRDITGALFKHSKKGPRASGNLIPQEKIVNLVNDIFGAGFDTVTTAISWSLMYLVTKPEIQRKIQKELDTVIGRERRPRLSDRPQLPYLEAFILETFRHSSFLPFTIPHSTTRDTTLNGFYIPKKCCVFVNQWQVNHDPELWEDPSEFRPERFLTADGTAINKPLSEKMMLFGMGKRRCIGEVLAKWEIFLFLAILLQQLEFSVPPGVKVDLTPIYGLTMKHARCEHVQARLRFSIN

## Oc1ccc(CN2CCCCC2)nc1-c1ccccc1
[1]
  EC50: 4.73 µM (active)
[2]
  IC50: 3.34 µM (active)

## CCOC(=O)C(NCCc1ccccc1F)(NC(=O)CC)C(F)(F)F (stereo not drawn)
[3]
  IC50: > 29.9 µM (inactive)
[4]
  EC50: > 29.9 µM (inactive)

## CCOC(=O)c1c(C)[nH]c(C)c1C(=O)COC(=O)[C@@H](NC(=O)c1ccccc1OCC)C(C)C
[5]
  AC50: 5.72 µM (active)
[6]
  AC50: 2.71 µM (active)
[7]
  AC50: 3.71 µM (active)
[8]
  AC50: 2.19 µM (active)

## Cc1ccc(S(=O)(=O)/N=C2\C=C(NS(=O)(=O)c3ccc(C)cc3)C(=O)c3ccccc32)cc1
[9]
  IC50: 30.6 µM (active)
[10]
  AC50: 2.98 µM (active)

## C=CCNC1=NN=C(c2cc(C)n(CCOC)c2C)CS1
[5]
  AC50: 3.9 µM (active)
[6]
  AC50: 8.09 µM (active)
[7]
  AC50: 1.56 µM (active)
[8]
  AC50: 4.19 µM (active)
[11]
  AC50: 2.08 µM (active)

## CCOC(=O)N1CCN(C(=O)c2ccc3oc(CCCc4ccccc4)nc3c2)CC1
[12]
  IC50: > 67.5 µM (inactive)
[13]
  EC50: 2.2 µM (active)
[14]
  IC50: > 67.5 µM (inactive)
[15]
  EC50: 0.436 µM (active)
[16]
  EC50: 0.579 µM (active)

## N#Cc1cc(-c2cccc(Cl)c2)cnc1O
[2]
  IC50: 2.29 µM (active)

## Cc1cc(N/N=C/c2ccc(O)cc2O)nc(N2CCOCC2)n1
[3]
  IC50: > 29.9 µM (inactive)
[17]
  IC50: > 100 µM (active)
[4]
  EC50: > 29.9 µM (inactive)

## NC(=O)C1CCN(C(=O)CCNS(=O)(=O)c2ccccc2F)CC1
[2]
  IC50: > 9.99 µM (inactive)

## CCn1nc2cc(C(=O)NCC34CC5CC(CC(C5)C3)C4)ccc2c1OC
[18]
  AC50: inconclusive
[19]
  AC50: 12.6 µM (inconclusive)
[2]
  IC50: 1.94 µM (active)
